Test results from US11084800B2 (Achillion Pharmaceuticals, Inc., priority 2017, dated 2021).

target: Human Factor D (Homo sapiens (Human), UniProt P00746); test: Human Factor D Assay; assay type: biochemical; conditions: Factor D inhibition, assay of Example 10; read-out: IC5 (Stars)
Procedure, shortened: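 Thioester substrate Z-L-Lys-SBz (100 μM) with Ellman's reagent DTNB (100 μM) reports activity of 80 nM human serum-derived enzyme, kinetically at 405 nm over 30 min. Compound preincubated 5 min, room temperature, pH 7.5 Tris/1 M NaCl; IC50 by nonlinear fit of rates.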

Human Factor D, sequence (P00746 26-253): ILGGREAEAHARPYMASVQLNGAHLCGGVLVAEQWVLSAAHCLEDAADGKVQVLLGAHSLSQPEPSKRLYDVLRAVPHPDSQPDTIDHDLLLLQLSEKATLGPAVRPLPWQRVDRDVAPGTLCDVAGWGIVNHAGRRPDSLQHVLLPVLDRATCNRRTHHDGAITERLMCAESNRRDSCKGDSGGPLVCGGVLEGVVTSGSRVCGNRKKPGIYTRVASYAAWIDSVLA

Row | Compound | IC50 [nM]
1 | CC(=O)c1cn(CC(=O)N2[C@H](C(=O)Nc3nc(Br)ccc3C)C[C@@]3(C)C[C@@H]23)c2cc(F)c(-c3cnc(C)nc3)cc12 [Compound 482, (1R,3S,5R)-2-(2-(3-acetyl-6-fluoro-5-(2-methylpyrimidin-5-yl)-1H-indol-1-yl)acetyl)-N-(6-bromo-3-methylpyridin-2-yl)-5-methyl-2-azabicyclo[3.1.0]hexane-3-carboxamide] | < 1000
2 | CC(=O)c1c(C)n(CC(=O)N2[C@H](C(=O)Nc3nc(Br)ccc3C)C[C@@]3(C)C[C@@H]23)c2ccc(-c3cnc(C)nc3)cc12 [Compound 483, (1R,3S,5R)-2-(2-(3-acetyl-2-methyl-5-(2-methylpyrimidin-5-yl)-1H-indol-1-yl)acetyl)-N-(6-bromo-3-methylpyridin-2-yl)-5-methyl-2-azabicyclo[3.1.0]hexane-3-carboxamide] | < 1000
3 | CC(=O)c1nn(CC(=O)N2[C@H](C(=O)Nc3nc(Br)c(F)cc3C)C[C@@]3(Cc4nnc(C)o4)C[C@@H]23)c2c(C)cc(-c3cnc(C)nc3)cc12 [Compound 484, (1R,3S,5R)-2-(2-(3-acetyl-7-methyl-5-(2-methylpyrimidin-5-yl)-1H-indazol-1-yl)acetyl)-N-(6-bromo-5-fluoro-3-methylpyridin-2-yl)-5-((5-methyl-1,3,4-oxadiazol-2-yl)methyl)-2-azabicyclo[3.1.0]hexane-3-carboxamide] | < 1000
4 | CC(=O)c1nn(CC(=O)N2[C@H](C(=O)Nc3nc(Br)c(F)cc3C)C[C@@]3(Cc4nnc(C)o4)C[C@@H]23)c2c(C)nc(-c3cnc(C)nc3)cc12 [Compound 485, (1R,3S,5R)-2-(2-(3-acetyl-7-methyl-5-(2-methylpyrimidin-5-yl)-1H-pyrazolo[3,4-c]pyridin-1-yl)acetyl)-N-(6-bromo-5-fluoro-3-methylpyridin-2-yl)-5-((5-methyl-1,3,4-oxadiazol-2-yl)methyl)-2-azabicyclo[3.1.0]hexane-3-carboxamide] | < 1000
5 | CC(=O)c1nn(CC(=O)N2[C@H](C(=O)Nc3nc(Br)ccc3Cl)C[C@@]3(Cc4nnc(C)o4)C[C@@H]23)c2c(C)cc(-c3cnc(C)nc3)cc12 [Compound 486, (1R,3S,5R)-2-(2-(3-acetyl-7-methyl-5-(2-methylpyrimidin-5-yl)-1H-indazol-1-yl)acetyl)-N-(6-bromo-3-chloropyridin-2-yl)-5-((5-methyl-1,3,4-oxadiazol-2-yl)methyl)-2-azabicyclo[3.1.0]hexane-3-carboxamide] | < 1000
6 | CCCNC(=O)c1nn(CC(=O)N2[C@H](C(=O)NCCC)C[C@@]3(C)C[C@@H]23)c2ccc(-c3cnc(C)nc3)cc12 [Compound 487, 1-(2-((1R,3S,5R)-5-methyl-3-(propylcarbamoyl)-2-azabicyclo[3.1.0]hexan-2-yl)-2-oxoethyl)-5-(2-methylpyrimidin-5-yl)-N-propyl-1H-indazole-3-carboxamide] | 1000 to 10000
7 | CCCCNC(=O)[C@@H]1C[C@@]2(C)C[C@H]2N1C(=O)Cn1nc(C(C)=O)c2cc(-c3cnc(C)nc3)ccc21 [Compound 488, (1R,3S,5R)-2-(2-(3-acetyl-5-(2-methylpyrimidin-5-yl)-1H-indazol-1-yl)acetyl)-N-butyl-5-methyl-2-azabicyclo[3.1.0]hexane-3-carboxamide] | < 1000
8 | CC(=O)c1nn(CC(=O)N2[C@H](C(=O)Nc3cc(C)cc(Br)n3)C[C@@]3(C)C[C@@H]23)c2ccc(-c3cnc(C)nc3)cc12 [Compound 492, (1R,3S,5R)-2-(2-(3-acetyl-5-(2-methylpyrimidin-5-yl)-1H-indazol-1-yl)acetyl)-N-(6-bromo-4-methylpyridin-2-yl)-5-methyl-2-azabicyclo[3.1.0]hexane-3-carboxamide] | < 1000
9 | CC(=O)c1nn(CC(=O)N2[C@H](C(=O)Nc3cc(C(=O)O)cc(Br)n3)C[C@@]3(C)C[C@@H]23)c2ccc(-c3cnc(C)nc3)cc12 [Compound 493, 2-[(1R,3S,5R)-2-{2-[3-Acetyl-5-(2-methylpyrimidin-5-yl)indazol-1-yl]acetyl}-5-methyl-2-azabicyclo[3.1.0]hexane-3-amido]-6-bromopyridine-4-carboxylic Acid] | < 1000
10 | COc1cc(-c2cnc(C)nc2)cc2c(C(C)=O)nn(CC(=O)N3[C@H](C(=O)Nc4nc(Br)ccc4C)C[C@@]4(C)C[C@@H]34)c12 [Compound 494, (1R,3S,5R)-2-(2-(3-acetyl-7-methoxy-5-(2-methylpyrimidin-5-yl)-1H-indazol-1-yl)acetyl)-N-(6-bromo-3-methylpyridin-2-yl)-5-methyl-2-azabicyclo[3.1.0]hexane-3-carboxamide] | < 1000
11 | CC(=O)c1nn(CC(=O)N2[C@H](C(=O)NCC(=O)O)C[C@@]3(C)C[C@@H]23)c2c(C)cc(-c3cnc(C)nc3)cc12 [Compound 495, ((1R,3S,5R)-2-(2-(3-acetyl-7-methyl-5-(2-methylpyrimidin-5-yl)-1H-indazol-1-yl)acetyl)-5-methyl-2-azabicyclo[3.1.0]hexane-3-carbonyl)glycine] | 1000 to 10000
12 | CC(=O)c1nn(CC(=O)N2[C@H](C(=O)NCCC(=O)O)C[C@@]3(C)C[C@@H]23)c2c(C)cc(-c3cnc(C)nc3)cc12 [Compound 497, 3-((1R,3S,5R)-2-(2-(3-acetyl-7-methyl-5-(2-methylpyrimidin-5-yl)-1H-indazol-1-yl)acetyl)-5-methyl-2-azabicyclo[3.1.0]hexane-3-carboxamido)propanoic acid] | < 1000
13 | CC(=O)c1nn(CC(=O)N2[C@H](C(=O)NCCCC(=O)O)C[C@@]3(C)C[C@@H]23)c2c(C)cc(-c3cnc(C)nc3)cc12 [Compound 498, 4-((1R,3S,5R)-2-(2-(3-acetyl-7-methyl-5-(2-methylpyrimidin-5-yl)-1H-indazol-1-yl)acetyl)-5-methyl-2-azabicyclo[3.1.0]hexane-3-carboxamido)butanoic acid] | < 1000
14 | CC(=O)c1nn(CC(=O)N2[C@H](C(=O)NC(C)(C)c3cccc(Cl)c3F)C[C@@]3(C)C[C@@H]23)c2c(C)cc(-c3cnc(C)nc3)cc12 [Compound 502, (1R,3S,5R)-2-(2-(3-acetyl-7-methyl-5-(2-methylpyrimidin-5-yl)-1H-indazol-1-yl)acetyl)-N-(2-(3-chloro-2-fluorophenyl)propan-2-yl)-5-methyl-2-azabicyclo[3.1.0]hexane-3-carboxamide] | < 1000
15 | CC(=O)c1nn(CC(=O)N2[C@H](C(=O)Nc3cc(C(N)=O)cc(Br)n3)C[C@@]3(C)C[C@@H]23)c2ccc(-c3cnc(C)nc3)cc12 [Compound 503, (1R,3S,5R)-2-(2-(3-acetyl-5-(2-methylpyrimidin-5-yl)-1H-indazol-1-yl)acetyl)-N-(6-bromo-4-carbamoylpyridin-2-yl)-5-methyl-2-azabicyclo[3.1.0]hexane-3-carboxamide] | < 1000
16 | CC(=O)c1nn(CC(=O)N2[C@H](C(=O)Nc3cc(OCc4ccccc4)cc(Br)n3)C[C@@]3(C)C[C@@H]23)c2ccc(-c3cnc(C)nc3)cc12 [Compound 504, (1R,3S,5R)-2-(2-(3-acetyl-5-(2-methylpyrimidin-5-yl)-1H-indazol-1-yl)acetyl)-N-(4-(benzyloxy)-6-bromopyridin-2-yl)-5-methyl-2-azabicyclo[3.1.0]hexane-3-carboxamide] | < 1000

same assay, conditions: Table 8; Factor D 80 nM, substrate Z-L-Lys-SBz; read-out: IC50

Row | Compound | IC50 [nM]
17 | Cc1ncc(-c2ccc3c(c2)c(C(=O)NCC(C)(C)C)nn3CC(=O)N2[C@H](C(=O)Nc3nc(Br)ccc3C)C[C@@]3(C)C[C@@H]23)cn1 [Compound 480] | > 10000
18 | Cc1ncc(-c2ccc3c(c2)c(C(=O)NCCN)nn3CC(=O)N2[C@H](C(=O)Nc3nc(Br)ccc3C)C[C@@]3(C)C[C@@H]23)cn1 [Compound 489, N-(2-aminoethyl)-1-(2-((1R,3S,5R)-3-((6-bromo-3-methylpyridin-2-yl)carbamoyl)-5-methyl-2-azabicyclo[3.1.0]hexan-2-yl)-2-oxoethyl)-5-(2-methylpyrimidin-5-yl)-1H-indazole-3-carboxamide] | 1000 to 10000
19 | CNCCNC(=O)c1nn(CC(=O)N2[C@H](C(=O)Nc3nc(Br)ccc3C)C[C@@]3(C)C[C@@H]23)c2ccc(-c3cnc(C)nc3)cc12 [Compound 490, 1-(2-((1R,3S,5R)-3-((6-bromo-3-methylpyridin-2-yl)carbamoyl)-5-methyl-2-azabicyclo[3.1.0]hexan-2-yl)-2-oxoethyl)-N-(2-(methylamino)ethyl)-5-(2-methylpyrimidin-5-yl)-1H-indazole-3-carboxamide] | 1000 to 10000
20 | Cc1ncc(-c2ccc3c(c2)c(C(=O)NCCN(C)C)nn3CC(=O)N2[C@H](C(=O)Nc3nc(Br)ccc3C)C[C@@]3(C)C[C@@H]23)cn1 [Compound 491, 1-(2-((1R,3S,5R)-3-((6-bromo-3-methylpyridin-2-yl)carbamoyl)-5-methyl-2-azabicyclo[3.1.0]hexan-2-yl)-2-oxoethyl)-N-(2-(dimethylamino)ethyl)-5-(2-methylpyrimidin-5-yl)-1H-indazole-3-carboxamide] | > 10000
21 | Cc1ncc(-c2ccc3c(c2)c(C(=O)NCC(F)(F)F)nn3CC(=O)N2[C@H](C(=O)Nc3nc(Br)ccc3C)C[C@@]3(C)C[C@@H]23)cn1 [Compound 499, 1-(2-((1R,3S,5R)-3-((6-bromo-3-methylpyridin-2-yl)carbamoyl)-5-methyl-2-azabicyclo[3.1.0]hexan-2-yl)-2-oxoethyl)-5-(2-methylpyrimidin-5-yl)-N-(2,2,2-trifluoroethyl)-1H-indazole-3-carboxamide] | < 1000
22 | Cc1ncc(-c2ccc3c(c2)c(C(=O)NCC(C)C)nn3CC(=O)N2[C@H](C(=O)Nc3nc(Br)ccc3C)C[C@@]3(C)C[C@@H]23)cn1 [Compound 500, 1-(2-((1R,3S,5R)-3-((6-bromo-3-methylpyridin-2-yl)carbamoyl)-5-methyl-2-azabicyclo[3.1.0]hexan-2-yl)-2-oxoethyl)-N-isobutyl-5-(2-methylpyrimidin-5-yl)-1H-indazole-3-carboxamide] | < 1000
